Assay results from patent US9198845B2, “Glutamine derivatives as deodorants” (Givaudan S.A., priority 2010, dated 2015).
Where two headings read alike, the source gives them in different places.

Tests used:
Format in all cases: cell-based
Corynebacterium Ax 20 = experiment: Inhibition of release of 3-hydroxy-3-methyl-hexanoic acid from Nα-(3-hydroxy-3-methyl-hexanoyl)-glutamine by bacterial cells (GC-analysis); details: for inhibition at 10 ppm / inhibition at 100 ppm / inhibition at 500 ppm / inhibition at 1000 ppm: Corynebacterium; for inhibition at 500 ppm: 500 ppm test compound; for inhibition at 1000 ppm: 1000 ppm test compound; for kind of inhibition (true inhibitor or alternative substrate): conclusion from Tables 1 and 2, prolonged preincubation; for IC 50 (Concentration for 50% inhibition of malodour release): estimated from the data in Table 1; for inhibitory activity compared to compound II: relative to compound II; for inhibition of malodour release: Compound Ia; for efficacy as inhibitors: general statement in the description
Description: (§1) Corynebacterium Ax 20 was grown overnight, harvested and resuspended in a phosphate buffer (50 mM, pH 7.5). Different compounds were dissolved in dimethylsulfoxide and added to the cells at a final concentration of 10 ppm, 100 ppm 500 ppm and 1000 ppm. The cells were then preincubated with the test agent for 30 min, 4 h, 8 h or 24 h. After this pre-incubation period, the natural substrate Nα-(3-hydroxy-3-methyl-hexanoyl)-glutamine was added (1 mM final concentration) and the cells were further incubated for 90 min. The released 3-hydroxy-3-methyl-hexanoic acid was determined by GC-analysis and compared to control samples to assess the […] malodor reducing capacity of a given compound in the bacterial cells. The samples were then further analysed to determine the cleavage of the synthetic compound by the action of the bacterial enzymes.

Ax30 = experiment: Inhibition of release of 3-hydroxy-3-methyl-hexanoic acid in different bacterial species; details: Arthrobacter woluwensis
Description: as §1, with “The cells were then preincubated with the test agent for 30 min, 4 h, 8 h or 24 h.” left out
(§2) The inhibition of malodour release was tested on different bacterial species, all isolated from the human axilla. The method from Example 2 was used.

Ax52 = experiment: as above; details: Corynebacterium mucifaciens
Description: as §1, with “The cells were then preincubated with the test agent for 30 min, 4 h, 8 h or 24 h.” left out
as §2

Ax73 = experiment: as above; details: Corynebacterium coyleae
Description: as §1, with “The cells were then preincubated with the test agent for 30 min, 4 h, 8 h or 24 h.” left out
as §2

Ax43 = experiment: as above; details: Corynebacterium tuberculostearicum
Description: as §1, §2

[1] = tested on: Ax20, Ax30, Ax43, Ax52, Ax73; experiment: Inhibition of release of 3-hydroxy-3-methyl-hexanoic acid, average over bacterial species; details: for inhibition at 10 ppm / inhibition at 100 ppm: average of Ax20, Ax30, Ax43, Ax52, Ax73
Description: as §1, with “The cells were then preincubated with the test agent for 30 min, 4 h, 8 h or 24 h.” left out
as §2

[2] = AX20, preincubation 0.5 h, 10 ppm test compound, read-out: % inhibition of the release of 3-hydroxy-3-methyl-hexanoic acid
[3] = AX20, preincubation 0.5 h, 100 ppm test compound, read-out: % inhibition of the release of 3-hydroxy-3-methyl-hexanoic acid
[4] = AX20, preincubation 4 h, 10 ppm test compound, read-out: % inhibition of the release of 3-hydroxy-3-methyl-hexanoic acid
[5] = AX20, preincubation 4 h, 100 ppm test compound, read-out: % inhibition of the release of 3-hydroxy-3-methyl-hexanoic acid
[6] = AX20, preincubation 8 h, 10 ppm test compound, read-out: % inhibition of the release of 3-hydroxy-3-methyl-hexanoic acid
[7] = AX20, preincubation 8 h, 100 ppm test compound, read-out: % inhibition of the release of 3-hydroxy-3-methyl-hexanoic acid
[8] = AX20, preincubation 24 h, 10 ppm test compound, read-out: % inhibition of the release of 3-hydroxy-3-methyl-hexanoic acid
[9] = AX20, preincubation 24 h, 100 ppm test compound, read-out: % inhibition of the release of 3-hydroxy-3-methyl-hexanoic acid
[10] = AX20, 100 ppm test compound, method of example 2, preincubation time not stated, read-out: % Inhibition of release of 3-hydroxy-3-methyl-hexanoic acid (100 ppm test compound)

CCCCC(CC)COC(=O)N[C@@H](CCC(N)=O)C(=O)O (stereo partly drawn) [Compound II, reference compound]
inhibition at 10 ppm (Corynebacterium Ax 20; [2]): 2.8% | inhibition at 100 ppm (Corynebacterium Ax 20; [3]): 33.4% | inhibition at 500 ppm (Corynebacterium Ax 20; AX20, preincubation 0.5 h): 76.6% | inhibition at 1000 ppm (Corynebacterium Ax 20; AX20, preincubation 0.5 h): 83% | inhibition at 10 ppm (Corynebacterium Ax 20; [4]): -4.4% | inhibition at 100 ppm (Corynebacterium Ax 20; [5]): -25.2% | inhibition at 500 ppm (Corynebacterium Ax 20; AX20, preincubation 4 h): 59.9% | inhibition at 1000 ppm (Corynebacterium Ax 20; AX20, preincubation 4 h): 79.5% | inhibition at 10 ppm (Corynebacterium Ax 20; [6]): 8.3% | inhibition at 100 ppm (Corynebacterium Ax 20; [7]): -9.8% | inhibition at 500 ppm (Corynebacterium Ax 20; AX20, preincubation 8 h): -5.6% | inhibition at 1000 ppm (Corynebacterium Ax 20; AX20, preincubation 8 h): 41.3% | inhibition at 10 ppm (Corynebacterium Ax 20; [8]): -1% | inhibition at 100 ppm (Corynebacterium Ax 20; [9]): -13.3% | inhibition at 500 ppm (Corynebacterium Ax 20; AX20, preincubation 24 h): -28.8% | inhibition at 1000 ppm (Corynebacterium Ax 20; AX20, preincubation 24 h): -23.1% | kind of inhibition (true inhibitor or alternative substrate) (Corynebacterium Ax 20): alternative substrate | IC 50 (Concentration for 50% inhibition of malodour release) (Corynebacterium Ax 20; preincubation time 0.5 h): 253.3 ppm | IC 50 (Concentration for 50% inhibition of malodour release) (Corynebacterium Ax 20; preincubation time 4 h): 387.2 ppm | IC 50 (Concentration for 50% inhibition of malodour release) (Corynebacterium Ax 20; preincubation time 8 h): >1000 ppm | IC 50 (Concentration for 50% inhibition of malodour release) (Corynebacterium Ax 20; preincubation time 24 h): >>1000 ppm

CCCCC(CC)CNC(=O)N[C@@H](CCC(N)=O)C(=O)O (stereo partly drawn) [Compound Ia, N2-[(2-ethylhexylamino)carbonyl]-L-glutamine]
inhibitory activity compared to compound II (Corynebacterium Ax 20; 0.5 h preincubation time): > 25 fold | inhibitory activity compared to compound II (Corynebacterium Ax 20; 8 h preincubation time): > 100 times | inhibition of malodour release (Corynebacterium Ax 20; 10 ppm combined with Cosmocil CQ 100 ppm): 58.8 | inhibition of malodour release (Corynebacterium Ax 20; 10 ppm combined with Cosmocil CQ 200 ppm): 75.6 | inhibition of malodour release (Corynebacterium Ax 20; 10 ppm combined with Cosmocil CQ 500 ppm): 85.2 | inhibition of malodour release (Corynebacterium Ax 20; 100 ppm combined with Cosmocil CQ 100 ppm): 85.9 | inhibition of malodour release (Corynebacterium Ax 20; 100 ppm combined with Cosmocil CQ 200 ppm): 95.6 | inhibition at 100 ppm (Corynebacterium Ax 20; [10]): 79.8% | inhibition at 10 ppm (Corynebacterium Ax 20; AX20, Ax20, preincubation 0.5 h, 10 ppm, read-out: % inhibition of release of 3-hydroxy-3-methyl-hexanoic acid): 51% | inhibition at 100 ppm (Corynebacterium Ax 20; AX20, Ax20, preincubation 0.5 h, 100 ppm, read-out: % inhibition of release of 3-hydroxy-3-methyl-hexanoic acid): 81% | inhibition at 10 ppm (Corynebacterium Ax 20; AX20, Ax20, preincubation 2 h, 10 ppm, read-out: % inhibition of release of 3-hydroxy-3-methyl-hexanoic acid): 50% | inhibition at 100 ppm (Corynebacterium Ax 20; AX20, Ax20, preincubation 2 h, 100 ppm, read-out: % inhibition of release of 3-hydroxy-3-methyl-hexanoic acid): 86% | inhibition at 10 ppm (Corynebacterium Ax 20; AX20, Compound Ia, 10 ppm alone (Cosmocil CQ 0 ppm), read-out: inhibition of malodour release): 61% | inhibition at 100 ppm (Corynebacterium Ax 20; AX20, Compound Ia, 100 ppm alone (Cosmocil CQ 0 ppm), read-out: inhibition of malodour release): 75.8% | inhibition at 10 ppm (Corynebacterium Ax 20; [2]): 61% | inhibition at 100 ppm (Corynebacterium Ax 20; [3]): 75.8% | inhibition at 500 ppm (Corynebacterium Ax 20; AX20, preincubation 0.5 h): 92.4% | inhibition at 1000 ppm (Corynebacterium Ax 20; AX20, preincubation 0.5 h): 92.5% | inhibition at 10 ppm (Corynebacterium Ax 20; [4]): 52.2% | inhibition at 100 ppm (Corynebacterium Ax 20; [5]): 81.2% | inhibition at 500 ppm (Corynebacterium Ax 20; AX20, preincubation 4 h): 100% | inhibition at 1000 ppm (Corynebacterium Ax 20; AX20, preincubation 4 h): 91.5% | inhibition at 10 ppm (Corynebacterium Ax 20; [6]): 65.2% | inhibition at 100 ppm (Corynebacterium Ax 20; [7]): 86% | inhibition at 500 ppm (Corynebacterium Ax 20; AX20, preincubation 8 h): 100% | inhibition at 1000 ppm (Corynebacterium Ax 20; AX20, preincubation 8 h): 91.8% | inhibition at 10 ppm (Corynebacterium Ax 20; [8]): 19.9% | inhibition at 100 ppm (Corynebacterium Ax 20; [9]): 83.2% | inhibition at 500 ppm (Corynebacterium Ax 20; AX20, preincubation 24 h): 100% | inhibition at 1000 ppm (Corynebacterium Ax 20; AX20, preincubation 24 h): 89.6% | kind of inhibition (true inhibitor or alternative substrate) (Corynebacterium Ax 20): true inhibitor | efficacy as inhibitors (Corynebacterium Ax 20): particularly good efficacy as inhibitors | IC 50 (Concentration for 50% inhibition of malodour release) (Corynebacterium Ax 20; preincubation time 0.5 h): <10 ppm | IC 50 (Concentration for 50% inhibition of malodour release) (Corynebacterium Ax 20; preincubation time 4 h): <10 ppm | IC 50 (Concentration for 50% inhibition of malodour release) (Corynebacterium Ax 20; preincubation time 8 h): <10 ppm | IC 50 (Concentration for 50% inhibition of malodour release) (Corynebacterium Ax 20; preincubation time 24 h): 52.8 ppm | inhibition at 10 ppm (Ax30; preincubation 0.5 h): 95% | inhibition at 100 ppm (Ax30; preincubation 0.5 h): 100% | inhibition at 10 ppm (Ax30; preincubation 2 h): 93% | inhibition at 100 ppm (Ax30; preincubation 2 h): 100% | inhibition at 10 ppm (Ax52; preincubation 0.5 h): 77% | inhibition at 100 ppm (Ax52; preincubation 0.5 h): 83% | inhibition at 10 ppm (Ax52; preincubation 2 h): 86% | inhibition at 100 ppm (Ax52; preincubation 2 h): 94% | inhibition at 10 ppm (Ax73; preincubation 0.5 h): 107% | inhibition at 100 ppm (Ax73; preincubation 0.5 h): 87% | inhibition at 10 ppm (Ax73; preincubation 2 h): 70% | inhibition at 100 ppm (Ax73; preincubation 2 h): 94% | inhibition at 10 ppm (Ax43; preincubation 0.5 h): 93% | inhibition at 100 ppm (Ax43; preincubation 0.5 h): 97% | inhibition at 10 ppm (Ax43; preincubation 2 h): 97% | inhibition at 100 ppm (Ax43; preincubation 2 h): 99% | inhibition at 10 ppm ([1]; preincubation 0.5 h): 84.6% | inhibition at 100 ppm ([1]; preincubation 0.5 h): 89.6% | inhibition at 10 ppm ([1]; preincubation 2 h): 79.2% | inhibition at 100 ppm ([1]; preincubation 2 h): 94.6% | activity in different bacterial species ([1]; conclusion from Table 4): active in all bacterial species

NC(=O)CC[C@H](NC(=O)NCc1ccccc1)C(=O)O [Compound Ib, N2-[(benzylamino)carbonyl]-L-glutamine]
inhibition at 100 ppm (Corynebacterium Ax 20; [10]): 61% | efficacy as inhibitors (Corynebacterium Ax 20): particularly good efficacy as inhibitors

NC(=O)CC[C@H](NC(=O)Nc1cccc(Cc2ccccc2)c1)C(=O)O [Example 1c, N2-[(3-benzylphenylamino)carbonyl]-L-glutamine]
inhibition at 100 ppm (Corynebacterium Ax 20; [10]): 71%
